pEC50: −log10 of the molar value.

Broadly, the pEC50 is the EC50 on a negative log10 scale, so that one unit is a factor of ten.

human GPR40 receptor, sequence (O14842 whole entry): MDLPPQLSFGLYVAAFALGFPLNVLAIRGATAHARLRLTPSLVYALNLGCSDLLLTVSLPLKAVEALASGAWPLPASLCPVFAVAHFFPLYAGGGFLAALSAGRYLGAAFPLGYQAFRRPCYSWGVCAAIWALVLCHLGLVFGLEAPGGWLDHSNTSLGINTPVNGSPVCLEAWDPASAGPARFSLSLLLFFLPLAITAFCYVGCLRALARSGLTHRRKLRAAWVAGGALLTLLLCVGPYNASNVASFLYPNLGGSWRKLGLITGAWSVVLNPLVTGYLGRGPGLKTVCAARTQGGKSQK

This test addresses human GPR40 receptor (Homo sapiens, UniProt O14842). In words: IP1 accumulation measurements using the IPOne assay system. In kind it is cell-based. The settings on record: IP1 accumulation (IPOne HTRF), 1 hour stimulation; 1321N1 cells stably expressing human GPR40; read-out: EC50 values on GPR40 determined as described in (B). As to the method:
(B) IP1 accumulation measurements using the IPOne assay system—1321N1 cells stably expressing human GPR40 receptor (Euroscreen, Belgium) were seeded 24 h before the assay in black clear-bottom collagen-coated 384-well plates in culture medium containing 10% FCS, 1% Na-Pyruvate and 400 μg/mL G418. IP1 is assayed according to the Manufacturer's description (Cisbio Bioassays, France). In brief, the assay is started by substitution of the culture medium by stimulation buffer (Hepes 10 mM, CaCl2 1 mM, MgCl2 0.5 mM, KCl 4.2 mM, NaCl 146 mM and glucose 5.5 mM, pH 7.4) without LiCl. Cells are stimulated for 1 hour at 37°, 10% CO2 by addition of the compounds that were diluted in stimulation buffer containing LiCl yielding a final LiCl concentration of 50 mM. Assays are stopped by adding HTRF-conjugates (IP1-d2 and Anti-IP1 cryptate Tb) and lysis buffer, provided by the manufacturer. After an incubation time of 1 hour at room temperature plates are measured using an EnVision™, Perkin Elmer.
On the technique in general: In TR-FRET formats the signal depends on donor and acceptor labels being close together.
On to `O=C(O)C[C@@H]1COc2cc(O[C@H]3CCc4ccc(C(F)(F)F)cc43)ccc21` [Example 50, {(S)-6-[(S)-6-Trifluoromethyl-indan-1-yloxy]-2,3-dihydro-benzofuran-3-yl]-acetic acid], for which the pEC50 was 5.53.
As to `O=C(O)C[C@@H]1COc2cc(O[C@@H]3CCc4c3cccc4-n3ccccc3=O)ccc21` [Example 51, {(S)-6-[(R)-4-(2-Oxo-2H-pyridin-1-yl)-indan-1-yloxy]-2,3-dihydro-benzofuran-3-yl}-acetic acid], the pEC50 is 5.01.
With `Cc1cccc(C)c1-c1ccc2c(c1)CC[C@H]2Oc1ccc2c(c1)OC[C@H]2CC(=O)O` [Example 52, {(S)-6-[(R)-5-(2,6-Dimethyl-phenyl)-indan-1-yloxy]-2,3-dihydro-benzofuran-3-yl}-acetic acid] the figure was 6.95; with `Cc1cccc(C)c1-c1ccc2c(c1)[C@@H](Oc1ccc3c(c1)OC[C@H]3CC(=O)O)CC2` [Example 53, {(S)-6-[(S)-6-(2,6-Dimethyl-phenyl)-indan-1-yloxy]-2,3-dihydro-benzofuran-3-yl}-acetic acid], 6.68.
In the case of `CC(C)c1ccccc1-c1ccc2c(c1)CC[C@H]2Oc1ccc2c(c1)OC[C@H]2CC(=O)O` [Example 54, {(S)-6-[(R)-5-(2-Isopropyl-phenyl)-indan-1-yloxy]-2,3-dihydro-benzofuran-3-yl}-acetic acid], the pEC50 is 6.59.
For the molecule `O=C(O)C[C@@H]1COc2cc(O[C@H]3CCc4ccc(Br)cc43)ccc21` [Example 55, {(S)-6-[(S)-6-Bromo-indan-1-yloxy]-2,3-dihydro-benzofuran-3-yl}-acetic acid], the pEC50 was 5.54.
With `O=C(O)C[C@@H]1COc2cc(O[C@@H]3CCc4c(C5=CCCCC56CCOCC6)cccc43)ccc21` [Example 56, {(S)-6-[(R)-4-(3-Oxa-spiro[5.5]undec-7-en-7-yl)-indan-1-yloxy]-2,3-dihydro-benzofuran-3-yl}-acetic acid] the figure was 6.91; with `Cn1ccnc1-c1cccc2c1CC[C@H]2Oc1ccc2c(c1)OC[C@H]2CC(=O)O` [Example 57, {(S)-6-[(R)-4-(1-methyl-1H-imidazol-2-yl)-indan-1-yloxy]-2,3-dihydro-benzofuran-3-yl}-acetic acid], 5.05.
The value for `Cc1cccnc1-c1cccc2c1CC[C@H]2Oc1ccc2c(c1)OC[C@H]2CC(=O)O` [Example 58, {(S)-6-[(R)-4-(3-Methyl-pyridin-2-yl)-indan-1-yloxy]-2,3-dihydro-benzofuran-3-yl}-acetic acid] was 6.27.
For the molecule `COc1cc(C)c(-c2cccc3c2CC[C@H]3Oc2ccc3c(c2)OC[C@H]3CC(=O)O)c(C)c1` [Example 59, {(S)-6-[(R)-4-(4-Methoxy-2,6-dimethyl-phenyl)-indan-1-yloxy]-2,3-dihydro-benzofuran-3-yl}-acetic acid], the pEC50 is 6.49.
On to `COc1ncc(C)c(-c2cccc3c2CC[C@H]3Oc2ccc3c(c2)OC[C@H]3CC(=O)O)c1C` [Example 60, {(S)-6-[(R)-4-(2-Methoxy-3,5-dimethyl-pyridin-4-yl)-indan-1-yloxy]-2,3-dihydro-benzofuran-3-yl}-acetic acid], for which the pEC50 is 7.29.
On to `Cc1cn(C)c(=O)c(C)c1-c1cccc2c1CC[C@H]2Oc1ccc2c(c1)OC[C@H]2CC(=O)O` [Example 61, {(S)-6-[(R)-4-(1,3,5-Trimethyl-2-oxo-1,2-dihydro-pyridin-4-yl)-indan-1-yloxy]-2,3-dihydro-benzofuran-3-yl}-acetic acid], for which the pEC50 is 6.81.
The value for `Cc1ccccc1-c1cccc2c1CC[C@H]2Oc1ccc2c(c1)OC[C@H]2CC(=O)O` [Example 62, {(S)-6-[(R)-4-o-Tolyl-indan-1-yloxy]-2,3-dihydro-benzofuran-3-yl}-acetic acid] was 7.28.
With `Cc1cc(=O)n(C)c(C)c1-c1cccc2c1CC[C@H]2Oc1ccc2c(c1)OC[C@H]2CC(=O)O` [Example 63, {(S)-6-[(R)-4-(1,2,4-Trimethyl-6-oxo-1,6-dihydro-pyridin-3-yl)-indan-1-yloxy]-2,3-dihydro-benzofuran-3-yl}-acetic acid] the figure was 5.50.
Take `COc1cc(C)c(-c2cccc3c2CC[C@H]3Oc2ccc3c(c2)OC[C@H]3CC(=O)O)c(C)n1` [Example 64, {(S)-6-[(R)-4-(6-Methoxy-2,4-dimethyl-pyridin-3-yl)-indan-1-yloxy]-2,3-dihydro-benzofuran-3-yl}-acetic acid]: the pEC50 was 6.67.
With `O=C(O)C[C@@H]1COc2cc(O[C@@H]3CCc4c3cccc4N3CCOCC3)ccc21` [Example 65, {(S)-6-[(R)-4-Morpholin-4-yl-indan-1-yloxy]-2,3-dihydro-benzofuran-3-yl}-acetic acid] the figure was 5.73; with `COc1cc(-c2cccc3c2CC[C@H]3Oc2ccc3c(c2)OC[C@H]3CC(=O)O)c(F)cn1` [Example 68, {(S)-6-[(R)-4-(5-Fluoro-2-methoxy-pyridin-4-yl)-indan-1-yloxy]-2,3-dihydro-benzofuran-3-yl}-acetic acid], 6.44.
The value for `O=C(O)C[C@@H]1COc2cc(O[C@@H]3CCc4c(-c5ccccc5C(F)(F)F)cccc43)ccc21` [Example 69, {(S)-6-[(R)-4-(2-Trifluoromethyl-phenyl)-indan-1-yloxy]-2,3-dihydro-benzofuran-3-yl}-acetic acid] was 7.06; that for `CC1(C)CCCC=C1c1cccc2c1CC[C@H]2Oc1ccc2c(c1)OC[C@H]2CC(=O)O` [Example 70, {(S)-6-[(R)-4-(6,6-Dimethyl-cyclohex-1-enyl)-indan-1-yloxy]-2,3-dihydro-benzofuran-3-yl}-acetic acid] was 8.10; that for `COc1ccc(C)c(-c2cccc3c2CC[C@H]3Oc2ccc3c(c2)OC[C@H]3CC(=O)O)c1` [Example 71, {(S)-6-[(R)-4-(5-Methoxy-2-methyl-phenyl)-indan-1-yloxy]-2,3-dihydro-benzofuran-3-yl}-acetic acid] was 7.15.
Regarding `Cc1ccc(O)cc1-c1cccc2c1CC[C@H]2Oc1ccc2c(c1)OC[C@H]2CC(=O)O` [Example 72, {(S)-6-[(R)-4-(5-Hydroxy-2-methyl-phenyl)-indan-1-yloxy]-2,3-dihydro-benzofuran-3-yl}-acetic acid], the pEC50 is 7.01.
Turning to `O=C(O)C[C@@H]1COc2cc(O[C@@H]3CCc4c(-c5cccnc5C(F)(F)F)cccc43)ccc21` [Example 73, {(S)-6-[(R)-4-(2-Trifluoromethyl-pyridin-3-yl)-indan-1-yloxy]-2,3-dihydro-benzofuran-3-yl}-acetic acid], the pEC50 was 5.56.
For the molecule `Cc1noc(C)c1-c1cccc2c1CC[C@H]2Oc1ccc2c(c1)OC[C@H]2CC(=O)O` [Example 74, {(S)-6-[(R)-4-(3,5-Dimethyl-isoxazol-4-yl)-indan-1-yloxy]-2,3-dihydro-benzofuran-3-yl}-acetic acid], the pEC50 was 6.49.
`O=C(O)C[C@@H]1COc2cc(O[C@@H]3CCc4c(-c5nccc6ccccc56)cccc43)ccc21` [Example 77, {(S)-6-[(R)-4-Isoquinolin-1-yl-indan-1-yloxy]-2,3-dihydro-benzofuran-3-yl}-acetic acid]: the pEC50 was 7.24.
The value for `COC(C)(c1cccc2c1CC[C@H]2Oc1ccc2c(c1)OC[C@H]2CC(=O)O)C(C)(C)C` (stereo partly drawn) [Example 78, {(S)-6-[(R)-4-(1-Methoxy-1,2,2-trimethyl-propyl)-indan-1-yloxy]-2,3-dihydro-benzofuran-3-yl}-acetic acid] was 7.12.
The value for `COCC(F)(F)c1cccc2c1CC[C@H]2Oc1ccc2c(c1)OC[C@H]2CC(=O)O` [Example 79, {(S)-6-[(R)-4-(1,1-Difluoro-2-methoxy-ethyl)-indan-1-yloxy]-2,3-dihydro-benzofuran-3-yl}-acetic acid] was 6.54; that for `Cc1ccc2ccccc2c1-c1cccc2c1CC[C@H]2Oc1ccc2c(c1)OC[C@H]2CC(=O)O` [Example 80, {(S)-6-[(R)-4-(2-Methyl-naphthalen-1-yl)-indan-1-yloxy]-2,3-dihydro-benzofuran-3-yl}-acetic acid] was 7.70; that for `CC(O)(c1cccc2c1CC[C@H]2Oc1ccc2c(c1)OC[C@H]2CC(=O)O)C1CCOCC1` (stereo partly drawn) [Example 81, ((S)-6-{(R)-4-[1-Hydroxy-1-(tetrahydro-pyran-4-yl)-ethyl]-indan-1-yloxy}-2,3-dihydro-benzofuran-3-yl)-acetic acid] was 5.81.
For `C=CCCC(C)(O)c1cccc2c1CC[C@H]2Oc1ccc2c(c1)OC[C@H]2CC(=O)O` (stereo partly drawn) [Example 82, {(S)-6-[(R)-4-(1-Hydroxy-1-methyl-pent-4-enyl)-indan-1-yloxy]-2,3-dihydro-benzofuran-3-yl}-acetic acid], the pEC50 was 5.47.
In the case of `CC(O)(CC1CCOCC1)c1cccc2c1CC[C@H]2Oc1ccc2c(c1)OC[C@H]2CC(=O)O` (stereo partly drawn) [Example 83, ((S)-6-{(R)-4-[1-Hydroxy-1-methyl-2-(tetrahydro-pyran-4-yl)-ethyl]-indan-1-yloxy}-2,3-dihydro-benzofuran-3-yl)-acetic acid], the pEC50 is 6.41.
With `COC(C)(C)C(F)(F)c1cccc2c1CC[C@H]2Oc1ccc2c(c1)OC[C@H]2CC(=O)O` [Example 84, {(S)-6-[(R)-4-(1,1-Difluoro-2-methoxy-2-methyl-propyl)-indan-1-yloxy]-2,3-dihydro-benzofuran-3-yl}-acetic acid] the figure was 6.93.

These data come from patent US20120302566A1, “INDANYLOXYDIHYDROBENZOFURANYLACETIC ACIDS” (BOEHRINGER INGELHEIM INTERNATIONAL GMBH, priority 2010, published 2012).
